Data published in PubChem BioAssay AID1259407 (Chemical Carcinogenesis Research Information System (CCRIS), 2018).
Calls of active or inactive are those of the source. The rule behind the calls is not given here.

Tested on: CCRIS mutagenicity, Ames/micronucleus/aberration tests
Test: CCRIS mutagenicity studies
[1] = Test System: AMES SALMONELLA TYPHIMURIUM, Strain/Indicator: TA98, Metabolic Activation: NONE, Method: STANDARD PLATE
[2] = Test System: AMES SALMONELLA TYPHIMURIUM, Strain/Indicator: TA98, Metabolic Activation: RAT, LIVER, S-9, AROCLOR 1254, Method: STANDARD PLATE
[3] = Test System: AMES SALMONELLA TYPHIMURIUM, Strain/Indicator: TA100, Metabolic Activation: NONE, Method: STANDARD PLATE
[4] = Test System: AMES SALMONELLA TYPHIMURIUM, Strain/Indicator: TA100, Metabolic Activation: RAT, LIVER, S-9, AROCLOR 1254, Method: STANDARD PLATE

Measured: mutagenic call

CC(=O)c1ccc(S(=O)(=O)NC(=O)NC2CCCCC2)cc1
inactive: Test System: AMES SALMONELLA TYPHIMURIUM, Strain/Indicator: TA98, Metabolic Activation: HAMSTER, LIVER, S-9, AROCLOR 1254, Method: STANDARD PLATE inactive; negative | Test System: AMES SALMONELLA TYPHIMURIUM, Strain/Indicator: TA98, Metabolic Activation: HAMSTER, LIVER, S-9, Method: STANDARD PLATE inactive; negative | Test System: AMES SALMONELLA TYPHIMURIUM, Strain/Indicator: TA98, Metabolic Activation: MOUSE, LIVER, S-9, AROCLOR 1254, Method: STANDARD PLATE inactive; negative | Test System: AMES SALMONELLA TYPHIMURIUM, Strain/Indicator: TA98, Metabolic Activation: MOUSE, LIVER, S-9, Method: STANDARD PLATE inactive; negative | [1] inactive; negative | [2] inactive; negative | Test System: AMES SALMONELLA TYPHIMURIUM, Strain/Indicator: TA98, Metabolic Activation: RAT, LIVER, S-9, Method: STANDARD PLATE inactive; negative | Test System: AMES SALMONELLA TYPHIMURIUM, Strain/Indicator: TA100, Metabolic Activation: HAMSTER, LIVER, S-9, AROCLOR 1254, Method: STANDARD PLATE inactive; negative | Test System: AMES SALMONELLA TYPHIMURIUM, Strain/Indicator: TA100, Metabolic Activation: HAMSTER, LIVER, S-9, Method: STANDARD PLATE inactive; negative | Test System: AMES SALMONELLA TYPHIMURIUM, Strain/Indicator: TA100, Metabolic Activation: MOUSE, LIVER, S-9, AROCLOR 1254, Method: STANDARD PLATE inactive; negative | Test System: AMES SALMONELLA TYPHIMURIUM, Strain/Indicator: TA100, Metabolic Activation: MOUSE, LIVER, S-9, Method: STANDARD PLATE inactive; negative | [3] inactive; negative | [4] inactive; negative | Test System: AMES SALMONELLA TYPHIMURIUM, Strain/Indicator: TA100, Metabolic Activation: RAT, LIVER, S-9, Method: STANDARD PLATE inactive; negative | Test System: AMES SALMONELLA TYPHIMURIUM, Strain/Indicator: TA1535, Metabolic Activation: HAMSTER, LIVER, S-9, AROCLOR 1254, Method: STANDARD PLATE inactive; negative | Test System: AMES SALMONELLA TYPHIMURIUM, Strain/Indicator: TA1535, Metabolic Activation: HAMSTER, LIVER, S-9, Method: STANDARD PLATE inactive; negative | Test System: AMES SALMONELLA TYPHIMURIUM, Strain/Indicator: TA1535, Metabolic Activation: MOUSE, LIVER, S-9, AROCLOR 1254, Method: STANDARD PLATE inactive; negative | Test System: AMES SALMONELLA TYPHIMURIUM, Strain/Indicator: TA1535, Metabolic Activation: MOUSE, LIVER, S-9, Method: STANDARD PLATE inactive; negative | Test System: AMES SALMONELLA TYPHIMURIUM, Strain/Indicator: TA1535, Metabolic Activation: NONE, Method: STANDARD PLATE inactive; negative | Test System: AMES SALMONELLA TYPHIMURIUM, Strain/Indicator: TA1535, Metabolic Activation: RAT, LIVER, S-9, AROCLOR 1254, Method: STANDARD PLATE inactive; negative | Test System: AMES SALMONELLA TYPHIMURIUM, Strain/Indicator: TA1535, Metabolic Activation: RAT, LIVER, S-9, Method: STANDARD PLATE inactive; negative | Test System: AMES SALMONELLA TYPHIMURIUM, Strain/Indicator: TA1537, Metabolic Activation: HAMSTER, LIVER, S-9, AROCLOR 1254, Method: STANDARD PLATE inactive; negative | Test System: AMES SALMONELLA TYPHIMURIUM, Strain/Indicator: TA1537, Metabolic Activation: HAMSTER, LIVER, S-9, Method: STANDARD PLATE inactive; negative | Test System: AMES SALMONELLA TYPHIMURIUM, Strain/Indicator: TA1537, Metabolic Activation: MOUSE, LIVER, S-9, AROCLOR 1254, Method: STANDARD PLATE inactive; negative | Test System: AMES SALMONELLA TYPHIMURIUM, Strain/Indicator: TA1537, Metabolic Activation: MOUSE, LIVER, S-9, Method: STANDARD PLATE inactive; negative | Test System: AMES SALMONELLA TYPHIMURIUM, Strain/Indicator: TA1537, Metabolic Activation: NONE, Method: STANDARD PLATE inactive; negative | Test System: AMES SALMONELLA TYPHIMURIUM, Strain/Indicator: TA1537, Metabolic Activation: RAT, LIVER, S-9, AROCLOR 1254, Method: STANDARD PLATE inactive; negative | Test System: AMES SALMONELLA TYPHIMURIUM, Strain/Indicator: TA1537, Metabolic Activation: RAT, LIVER, S-9, Method: STANDARD PLATE inactive; negative | Test System: AMES SALMONELLA TYPHIMURIUM, Strain/Indicator: TA1538, Metabolic Activation: HAMSTER, LIVER, S-9, AROCLOR 1254, Method: STANDARD PLATE inactive; negative | Test System: AMES SALMONELLA TYPHIMURIUM, Strain/Indicator: TA1538, Metabolic Activation: HAMSTER, LIVER, S-9, Method: STANDARD PLATE inactive; negative | Test System: AMES SALMONELLA TYPHIMURIUM, Strain/Indicator: TA1538, Metabolic Activation: MOUSE, LIVER, S-9, AROCLOR 1254, Method: STANDARD PLATE inactive; negative | Test System: AMES SALMONELLA TYPHIMURIUM, Strain/Indicator: TA1538, Metabolic Activation: MOUSE, LIVER, S-9, Method: STANDARD PLATE inactive; negative | Test System: AMES SALMONELLA TYPHIMURIUM, Strain/Indicator: TA1538, Metabolic Activation: NONE, Method: STANDARD PLATE inactive; negative | Test System: AMES SALMONELLA TYPHIMURIUM, Strain/Indicator: TA1538, Metabolic Activation: RAT, LIVER, S-9, AROCLOR 1254, Method: STANDARD PLATE inactive; negative | Test System: AMES SALMONELLA TYPHIMURIUM, Strain/Indicator: TA1538, Metabolic Activation: RAT, LIVER, S-9, Method: STANDARD PLATE inactive; negative | Test System: E. COLI, Strain/Indicator: WP2 UVRA, Metabolic Activation: HAMSTER, LIVER, S-9, AROCLOR 1254, Method: STANDARD PLATE inactive; negative | Test System: E. COLI, Strain/Indicator: WP2 UVRA, Metabolic Activation: HAMSTER, LIVER, S-9, Method: STANDARD PLATE inactive; negative | Test System: E. COLI, Strain/Indicator: WP2 UVRA, Metabolic Activation: MOUSE, LIVER, S-9, AROCLOR 1254, Method: STANDARD PLATE inactive; negative | Test System: E. COLI, Strain/Indicator: WP2 UVRA, Metabolic Activation: MOUSE, LIVER, S-9, Method: STANDARD PLATE inactive; negative | Test System: E. COLI, Strain/Indicator: WP2 UVRA, Metabolic Activation: NONE, Method: STANDARD PLATE inactive; negative | Test System: E. COLI, Strain/Indicator: WP2 UVRA, Metabolic Activation: RAT, LIVER, S-9, AROCLOR 1254, Method: STANDARD PLATE inactive; negative | Test System: E. COLI, Strain/Indicator: WP2 UVRA, Metabolic Activation: RAT, LIVER, S-9, Method: STANDARD PLATE inactive; negative

O=C(CBr)c1ccc(Br)cc1
inactive: Test System: AMES SALMONELLA TYPHIMURIUM, Strain/Indicator: TA98, Metabolic Activation: NONE, Method: PREINCUBATION inactive; negative | Test System: AMES SALMONELLA TYPHIMURIUM, Strain/Indicator: TA98, Metabolic Activation: RAT, LIVER, S-9, PCB, Method: PREINCUBATION inactive; negative | Test System: AMES SALMONELLA TYPHIMURIUM, Strain/Indicator: TA100, Metabolic Activation: NONE, Method: PREINCUBATION inactive; negative | Test System: AMES SALMONELLA TYPHIMURIUM, Strain/Indicator: TA100, Metabolic Activation: RAT, LIVER, S-9, PCB, Method: PREINCUBATION inactive; negative | Test System: E. COLI, Strain/Indicator: WP2 UVRA, Metabolic Activation: NONE, Method: PREINCUBATION inactive; negative

O=C(O)Nc1ccccc1
inactive: [1] inactive; negative | [2] inactive; negative | [3] inactive; negative | [4] inactive; negative
